The structures appear in SMILES notation.

Common to all, as to type: in vivo, mouse
For experiment [1], the system named is plasma cells. As to the kind of experiment: Spleen plasma cells by flow cytometry in MRL/lpr mice. The note with it: 100 mg/kg, p<0.01. The procedure: Antibodies used for flow cytometry consisted of anti-mouse CD138-APC (eBioscience, San Diego, Calif.), anti-mouse CD19-FITC (eBioscience, San Diego, Calif.), anti-mouse CD38-PE (eBioscience, San Diego, Calif.) and anti-mouse CD45R/B220-Cyc (eBioscience, San Diego, Calif.), Rat IgG1-APC isotype control (eBioscience, San Diego, Calif.), Rat IgG2a-PE isotype control (eBioscience, San Diego, Calif.). All samples were analyzed using an Accuri C6 Flow Cytometer. Complete media was used for all experiments involving the ex vivo culture of splenocytes for all Elispot experiments. Complete media consisted of RPMI1640 (Cellgro, Manassas, Va.), plus 1% Pen-Strep (Cellgro, Manassas, Va.), 1% L-Gln (Cellgro, Manassas, Va.), 1% NEAA (Cellgro, Manassas, Va.), β-ME (Cellgro, Manassas, Va.), plus 10% FBS (Cellgro, Manassas, Va.).
Washed, RBC-lysed splenocytes were stained for plasma cell markers as previously used in published reports (Neubert, Meister et al. 2008). As used herein the term “plasma cell” will refer to the following immunophenotype definition: Plasma cells were defined as live CD19-negative, CD45R/B220-negative, CD138-positive, CD38-positive events for the MRL/lpr model. A total of 200,000-500,000 events were collected per tube/sample. Insufficient sample limited plasma cell determination in bone marrow. […]
For orientation: In flow cytometry, cells or beads pass a laser one at a time.

Experiment [2] concerns IL-12. As to the kind of experiment: Serum IL-12 (Luminex) in MRL/lpr mice. How it is done: For the processing of serum samples for cytokine analysis, frozen plasma at -80° C. was thawed on ice, vortexed, and centrifuged for 10 minutes to remove debris and aggregates. A total of 25-50 μL of serum was used for Luminex® assays following the manufacturer's instructions. Ten different mouse cytokines were measured using the mouse cytokine 10-plex bead kit (Invitrogen, Carlsbad, Calif., no. LMC0001). Briefly, filter plates (Millipore, Billerica, Mass., no. […]10), were pre-wet with 200 μL of wash solution (kit component) and 25 μL of beads were added per well. Serum samples were diluted and a total volume of 50 μL was added per well (ie, 25 μL of sample serum plus 25 μL of assay diluent as provided by the manufacturer). Plates with beads were incubated for 2 hours at room temperature (RT) on an orbital shaker in the dark. At the end of the incubation, plate(s) were washed twice in kit buffer, secondary biotinylated antibody was added at a 1:10 dilution (100 μL) in biotin diluent provided with the kit. Plates were incubated at RT for 1 hour in the dark then washed twice in kit buffer. Strepavidin in assay diluent was added at 100 μL per well, then incubated for 30 minutes at RT in the dark. The plates were washed 3 times then 100 μL of kit wash solution was added and agitated for 2-3 minutes at RT in the dark. […]

Experiment [3] relates to pSTAT3. As to the kind of experiment: Pharmacodynamic kidney pSTAT3 (JAK2 inhibition marker) in NZM mice. The note with it: vs vehicle or CTX, p<0.01. How it is done:
Age mated, female, NZM or NZW/LacJ, mice were matured for the study of lupus nephritis for a total of 7 months or 210 days at which time urine was collected for proteinuria detection. Mice with 0.5-1.0 mg/ml of urine protein as determined by an optical density-based total protein precipitation assay and cross-checked for 30-300 mg/dl of protein as determined by a stick assay were considered proteinuria positive and selected for study entry. Groups were normalized to contain a Gaussian distribution of proteinuria positive animals (i.e., ⅓ low proteinuria, ⅓ medium, ⅓ high) then randomized between groups before ear marking and taking baseline measures including urine and serum collections. A total of five mice from the total population were randomly selected for baseline kidney histology evaluation. Treatments and tests for each group are as described in FIG. 12. Briefly, with a minimum of 10 mice per group, COMPOUND A was administered at 100 mg/kg or 55 mg/kg, both twice a day and orally. […] Vehicle included 3% DMSO, 10% Solutol and 87% PBS. […] End-stage lupus nephritis was evaluated by histopathology and scored by a board certified pathologist for the assessment of total renal damage in diseased animals using the scoring method described by Smith et al (Smith, Dong et al. 2007). […] Day-98 or “end of treatment/study” represents 310 days of age for the NZM animals.

The subject of experiment [4] is c-telopeptide collagen type I cross-linker; CTx. The experiment can be described thus: Osteoclast activity: serum bone resorption biomarker CTx in NZM mice. An excerpt: Vehicle included 3% DMSO, 10% Solutol and 87% PBS.

With `CN1CCN(c2cccc(Nc3nc4c(-c5ccc(S(C)(=O)=O)cc5)cccn4n3)c2)CC1` [COMPOUND A, [8-(4-methanesulfonyl-phenyl)-[1,2,4]triazolo[1,5-a]pyridin-2-yl]-[3-(4-methyl-piperazin-1-yl)-phenyl]-amine], the “spleen plasma cells decrease vs vehicle” value in experiment [1] was 65.5%. Also, the entries for the “serum IL-12 decrease compared to vehicle” value in experiment [2] (55 mg/kg p.o. b.i.d.) and in experiment [2] (100 mg/kg p.o. b.i.d.) were 50.7% and 56.1%, respectively. The “levels of pSTAT3 in the kidneys” value in experiment [3] is “significantly lower”. In addition, the “serum CTx decrease vs. vehicle” value in experiment [4] (55 mg/kg) stood at 37.8%; in experiment [4] (100 mg/kg) it was 46.7%.

The values above are taken from patent US9023853B2, “Janus kinase 2 (JAK2) inhibitor for the treatment of lupus” (Cephalon, Inc., priority 2010, dated 2015).
